Reference: ChEMBL document CHEMBL3734705, “Synthesis and in vitro cytotoxicity of novel C-12 substituted-14-deoxy-andrographolide derivatives as potent anti-cancer agents” (2015)

Key:
[1] = Cytotoxicity against human MOLT4 cells assessed as growth level at 10 uM after 48 hrs by SRB assay; type: functional, MOLT-4
SR = experiment: Cytotoxicity against human SR cells assessed as growth level at 10 uM after 48 hrs by SRB assay; type: functional
A549 = experiment: Cytotoxicity against human A549 cells assessed as growth level at 10 uM after 48 hrs by SRB assay; type: functional
NCI-H226 = experiment: Cytotoxicity against human NCI-H226 cells assessed as growth level at 10 uM after 48 hrs by SRB assay; type: functional
NCI-H460 [2] = experiment: Cytotoxicity against human NCI-H460 cells assessed as growth level at 10 uM after 48 hrs by SRB assay; type: functional
[3] = Cytotoxicity against human HCT116 cells assessed as growth level at 10 uM after 48 hrs by SRB assay; type: functional, HCT-116
KM12 [4] = experiment: Cytotoxicity against human KM12 cells assessed as growth level at 10 uM after 48 hrs by SRB assay; type: functional
[5] = Cytotoxicity against human SNB19 cells assessed as growth level at 10 uM after 48 hrs by SRB assay; type: functional, SNB-19
[6] = Cytotoxicity against human SNB75 cells assessed as growth level at 10 uM after 48 hrs by SRB assay; type: functional, SNB-75
SK-MEL-28 [7] = experiment: Cytotoxicity against human SK-MEL-28 cells assessed as growth level at 10 uM after 48 hrs by SRB assay; type: functional
[8] = Cytotoxicity against human OVCAR3 cells assessed as growth level at 10 uM after 48 hrs by SRB assay; type: functional, OVCAR-3
ACHN = experiment: Cytotoxicity against human ACHN cells assessed as growth level at 10 uM after 48 hrs by SRB assay; type: functional
[9] = Cytotoxicity against human Caki1 cells assessed as growth level at 10 uM after 48 hrs by SRB assay; type: functional, CAKI-1
SN12C = experiment: Cytotoxicity against human SN12C cells assessed as growth level at 10 uM after 48 hrs by SRB assay; type: functional
[10] = Cytotoxicity against human DU145 cells assessed as growth level at 10 uM after 48 hrs by SRB assay; type: functional, DU-145
MCF7 = experiment: Cytotoxicity against human MCF7 cells assessed as growth level at 10 uM after 48 hrs by SRB assay; type: functional
MDA-MB-231 = experiment: Cytotoxicity against human MDA-MB-231 cells assessed as growth level at 10 uM after 48 hrs by SRB assay; type: functional
[11] = Cytotoxicity against human BT549 cells assessed as growth level at 10 uM after 48 hrs by SRB assay; type: functional, BT-549
T47D [12] = experiment: Cytotoxicity against human T47D cells assessed as growth level at 10 uM after 48 hrs by SRB assay; type: functional
K562 = experiment: Cytotoxicity against human K562 cells assessed as growth inhibition at 10 uM after 48 hrs by SRB assay; type: functional; details: K562, 48 h, read-out: GI
EKVX = experiment: Cytotoxicity against human EKVX cells assessed as growth inhibition at 10 uM after 48 hrs by SRB assay; type: functional; details: read-out: GI
[13] = Cytotoxicity against human HOP92 cells assessed as growth inhibition at 10 uM after 48 hrs by SRB assay; type: functional; details: HOP-92, 48 h, read-out: GI
NCI-H460 [14] = experiment: Cytotoxicity against human NCI-H460 cells assessed as growth inhibition at 10 uM after 48 hrs by SRB assay; type: functional; details: NCI-H460, 48 h, read-out: GI
[15] = Cytotoxicity against human HCT116 cells assessed as growth inhibition at 10 uM after 48 hrs by SRB assay; type: functional; details: HCT-116, 48 h, read-out: GI
[16] = Cytotoxicity against human HCT15 cells assessed as growth inhibition at 10 uM after 48 hrs by SRB assay; type: functional; details: HCT-15, 48 h, read-out: GI
KM12 [17] = experiment: Cytotoxicity against human KM12 cells assessed as growth inhibition at 10 uM after 48 hrs by SRB assay; type: functional; details: KM12, 48 h, read-out: GI
[18] = Cytotoxicity against human SF539 cells assessed as growth inhibition at 10 uM after 48 hrs by SRB assay; type: functional; details: SF-539, 48 h, read-out: GI
[19] = Cytotoxicity against human SNB19 cells assessed as growth inhibition at 10 uM after 48 hrs by SRB assay; type: functional; details: SNB-19, 48 h, read-out: GI
U-251 = experiment: Cytotoxicity against human U251 cells assessed as growth inhibition at 10 uM after 48 hrs by SRB assay; type: functional; details: U-251, 48 h, read-out: GI
Malme-3M = experiment: Cytotoxicity against human MALME-3M cells assessed as growth inhibition at 10 uM after 48 hrs by SRB assay; type: functional; details: read-out: GI
M14 = experiment: Cytotoxicity against human M14 cells assessed as growth inhibition at 10 uM after 48 hrs by SRB assay; type: functional; details: M14, 48 h, read-out: GI
SK-MEL-28 [20] = experiment: Cytotoxicity against human SK-MEL-28 cells assessed as growth inhibition at 10 uM after 48 hrs by SRB assay; type: functional; details: SK-MEL-28, 48 h, read-out: GI
[21] = Cytotoxicity against human IGROV1 cells assessed as growth inhibition at 10 uM after 48 hrs by SRB assay; type: functional; details: IGROV-1, 48 h, read-out: GI
[22] = Cytotoxicity against human OVCAR8 cells assessed as growth inhibition at 10 uM after 48 hrs by SRB assay; type: functional; details: OVCAR-8, 48 h, read-out: GI
[23] = Cytotoxicity against human NCI-ADR-RES cells assessed as growth inhibition at 10 uM after 48 hrs by SRB assay; type: functional; details: read-out: GI
A498 = experiment: Cytotoxicity against human A498 cells assessed as growth inhibition at 10 uM after 48 hrs by SRB assay; type: functional; details: A498, 48 h, read-out: GI
[24] = Cytotoxicity against human RXF393 cells assessed as growth inhibition at 10 uM after 48 hrs by SRB assay; type: functional; details: RXF 393, 48 h, read-out: GI
[25] = Cytotoxicity against human UO31 cells assessed as growth inhibition at 10 uM after 48 hrs by SRB assay; type: functional; details: UO-31, 48 h, read-out: GI
[26] = Cytotoxicity against human DU145 cells assessed as growth inhibition at 10 uM after 48 hrs by SRB assay; type: functional; details: DU-145, 48 h, read-out: GI
[27] = Cytotoxicity against human Hs578T cells assessed as growth inhibition at 10 uM after 48 hrs by SRB assay; type: functional; details: Hs-578T, read-out: GI
[28] = Cytotoxicity against human BT549 cells assessed as growth inhibition at 10 uM after 48 hrs by SRB assay; type: functional; details: BT-549, 48 h, read-out: GI
T47D [29] = experiment: Cytotoxicity against human T47D cells assessed as growth inhibition at 10 uM after 48 hrs by SRB assay; type: functional; details: read-out: GI
NCI-H522 = experiment: Cytotoxicity against human NCI-H522 cells assessed as growth inhibition at 10 uM after 48 hrs by SRB assay; type: functional; details: NCI-H522, 48 h, read-out: GI
SK-MEL-5 = experiment: Cytotoxicity against human SK-MEL-5 cells assessed as growth inhibition at 10 uM after 48 hrs by SRB assay; type: functional; details: SK-MEL-5, 48 h, read-out: GI

## C=C1CC[C@@H]2[C@](C)(COC(C)=O)[C@H](OC(C)=O)CC[C@@]2(C)[C@@H]1CC(NCc1ccccc1)C1=CCOC1=O (mixture of isomers)
[1]
  Activity: -3.86%
SR
  Activity: 20.89%
A549
  Activity: 49.21%
NCI-H226
  Activity: 11.36%
NCI-H460 [2]
  Activity: 48.43%
[3]
  Activity: 42.32%
KM12 [4]
  Activity: 39.08%
[5]
  Activity: 68.18%
[6]
  Activity: 76.94%
SK-MEL-28 [7]
  Activity: 68.59%
[8]
  Activity: 31.82%
ACHN
  Activity: 46.39%
[9]
  Activity: 49.62%
SN12C
  Activity: 58.19%
[10]
  Activity: 67.16%
MCF7
  Activity: 29.82%
MDA-MB-231
  Activity: 64.69%
[11]
  Activity: 28.11%
T47D [12]
  Activity: 14.23%
K562
  inhibition of growth at 10 µM: 75.3%
EKVX
  inhibition of growth at 10 µM: 46.1%
[13]
  inhibition of growth at 10 µM: 58.3%
NCI-H460 [14]
  inhibition of growth at 10 µM: 51.6%
[15]
  inhibition of growth at 10 µM: 57.7%
[16]
  inhibition of growth at 10 µM: 59%
KM12 [17]
  inhibition of growth at 10 µM: 60.9%
[18]
  inhibition of growth at 10 µM: 20.5%
[19]
  inhibition of growth at 10 µM: 31.8%
U-251
  inhibition of growth at 10 µM: 52.4%
Malme-3M
  inhibition of growth at 10 µM: 22.9%
M14
  inhibition of growth at 10 µM: 57.9%
SK-MEL-28 [20]
  inhibition of growth at 10 µM: 31.4%
[21]
  inhibition of growth at 10 µM: 37.1%
[22]
  inhibition of growth at 10 µM: 71.8%
[23]
  inhibition of growth at 10 µM: 76.5%
A498
  inhibition of growth at 10 µM: 43.8%
[24]
  inhibition of growth at 10 µM: 25.7%
[25]
  inhibition of growth at 10 µM: 70.9%
[26]
  inhibition of growth at 10 µM: 32.8%
[27]
  inhibition of growth at 10 µM: 13.6%
[28]
  inhibition of growth at 10 µM: 71.9%
T47D [29]
  inhibition of growth at 10 µM: 85.8%

## C=C1CC[C@@H]2[C@](C)(COC(C)=O)[C@H](OC(C)=O)CC[C@@]2(C)[C@@H]1CC(NCCCC)C1=CCOC1=O (mixture of isomers)
[1]
  Activity: 55.54%
SR
  Activity: 48.54%
A549
  Activity: 81.23%
NCI-H226
  Activity: 75.67%
NCI-H460 [2]
  Activity: 91.62%
[3]
  Activity: 80.22%
KM12 [4]
  Activity: 92.79%
[5]
  Activity: 87.32%
[6]
  Activity: 77.87%
SK-MEL-28 [7]
  Activity: 98.09%
[8]
  Activity: 91.12%
ACHN
  Activity: 99.42%
[9]
  Activity: 90.95%
SN12C
  Activity: 89.83%
[10]
  Activity: 99.18%
MCF7
  Activity: 82.86%
MDA-MB-231
  Activity: 79.12%
[11]
  Activity: 89.2%
T47D [12]
  Activity: 71.96%
K562
  inhibition of growth at 10 µM: 30.5%
EKVX
  inhibition of growth at 10 µM: 28.6%
[13]
  inhibition of growth at 10 µM: 46.7%
NCI-H460 [14]
  inhibition of growth at 10 µM: 8.38%
NCI-H522
  inhibition of growth at 10 µM: 20.9%
[15]
  inhibition of growth at 10 µM: 19.8%
[16]
  inhibition of growth at 10 µM: 3.11%
KM12 [17]
  inhibition of growth at 10 µM: 7.21%
[18]
  inhibition of growth at 10 µM: 9.46%
[19]
  inhibition of growth at 10 µM: 12.7%
U-251
  inhibition of growth at 10 µM: 13.2%
Malme-3M
  inhibition of growth at 10 µM: 2.43%
M14
  inhibition of growth at 10 µM: 7.25%
SK-MEL-28 [20]
  inhibition of growth at 10 µM: 1.91%
SK-MEL-5
  inhibition of growth at 10 µM: 24%
[21]
  inhibition of growth at 10 µM: 20%
[22]
  inhibition of growth at 10 µM: 10.4%
[23]
  inhibition of growth at 10 µM: 12.7%
A498
  inhibition of growth at 10 µM: 24.6%
[25]
  inhibition of growth at 10 µM: 16%
[26]
  inhibition of growth at 10 µM: 0.82%
[27]
  inhibition of growth at 10 µM: 2.32%
[28]
  inhibition of growth at 10 µM: 10.8%
T47D [29]
  inhibition of growth at 10 µM: 28%
